Assay results published in US7238801B2, “Phthalocyanine compound, method for production thereof, and near infrared absorbing dye and near infrared absorbing filter using same” (Nippon Shokubai Co., Ltd., priority 2002, dated 2007).
Where two headings read alike, the source gives them in different places.

Columns and labels:
Assay type in all cases: physicochemical
[1] = Maximum absorption wavelength by spectrophotometer
Protocol: Now, working examples and comparative examples will be described below. The maximum absorption wavelengths (λmax) reported in this invention are magnitudes determined in acetone.
The phthalocyanine compound obtained in the present example, i.e. VOPc(PhS)8{2,6-(CH3)2PhO}4{(C2H5)2NCH2CH2NH}4, was tested for maximum absorption wavelengths in acetone and in chloroform by the use of a spectrophotometer (made by Shimadzu Seisakusho Ltd. and sold under the trademark designation of “UVl-3100”).

[2] = Solubility in toluene and methyl ethyl ketone at room temperature; conditions: 10 ml, room temperature (25° C.), visual; for Solubility MEX: methyl ethyl ketone
Text: The solubility shown in Table 23 represents the data obtained by rating the relevant values on the […] scale, wherein ⊚ stands for a value of not less than 5% by weight, ◯ for a value of not less than 1% by weight and less than 5% by weight, Δ for a value of not less than 0.1% by weight and less than 1% by weight, and X for a value of less than 0.1% by weight.

[3] = Maximum absorption wavelength by spectrophotometer; remark: listed apart in the source

Substance	Max. absorption wavelength (in acetone) [1] [nm]	Max. absorption wavelength (in chloroform) [1] [nm]	Max. absorption wavelength (in acetone) [3] [nm]	Solubility MEX [2]	Solubility toluene [2]
CuPc(2,5-Cl2PhO)8{2,6-(CH3)2PhO}4(PhCH2NH)4 [reference compound]	807				
VOPc(PhS)8{2,6-(CH3)2PhO}4{(C2H5)2NCH2CH2NH}4 [Example 1]	941	960		⊚ (a value of not less than 5% by weight)	⊚ (a value of not less than 5% by weight)
VOPc(PhS)8{2,6-(CH3)2PhO}4{(CH3)2CHO(CH2)3NH}4 [Example 9]	930	949		⊚ (a value of not less than 5% by weight)	⊚ (a value of not less than 5% by weight)
VOPc(PhS)8{2,6-(CH3)2PhO}4{(CH3CH2O(CH2)3NH}4 [Example 8]	928	947		⊚ (a value of not less than 5% by weight)	⊚ (a value of not less than 5% by weight)
VOPc(PhS)8{2,6-(CH3)2PhO}4{CH3(CH2)3CH(C2H5)CH2NH}4 [Example 16]	939	958		⊚ (a value of not less than 5% by weight)	⊚ (a value of not less than 5% by weight)
VOPc(PhS)8{2,6-(CH3)2PhO}4{CH3(CH2)3CH(C2H5)CH2O(CH2)3NH}4 [Example 11]	933	952		⊚ (a value of not less than 5% by weight)	⊚ (a value of not less than 5% by weight)
VOPc(PhS)8{2,6-(CH3)2PhO}4{CH3(CH2)3O(CH2)3NH}4 [Example 10]	930	950		⊚ (a value of not less than 5% by weight)	⊚ (a value of not less than 5% by weight)
VOPc(PhS)8{2,6-(CH3)2PhO}4{CH3(CH2)5NH}4 [Example 15]	930	948		⊚ (a value of not less than 5% by weight)	⊚ (a value of not less than 5% by weight)
VOPc(PhS)8{2,6-(CH3)2PhO}4{CH3(CH2)7NH}4 [Example 18]	931	950		⊚ (a value of not less than 5% by weight)	⊚ (a value of not less than 5% by weight)
VOPc(PhS)8{2,6-(CH3)2PhO}4{CH3(CH2)17NH}4 [Example 19]	935	954		⊚ (a value of not less than 5% by weight)	⊚ (a value of not less than 5% by weight)
VOPc{2-(CH3O)PhS}8{2,6-(CH3)2PhO}4{(C2H5)2NCH2CH2NH}4 [Example 2]	950	970		⊚ (a value of not less than 5% by weight)	⊚ (a value of not less than 5% by weight)
VOPc{4-(CH3O)PhS}8{2,6-(CH3)2PhO}4{CH3(CH2)3CH(C2H5)CH2NH}4 [Example 17]	960	980	962	⊚ (a value of not less than 5% by weight)	⊚ (a value of not less than 5% by weight)

Further lines, with some results ahead:

Max. absorption wavelength (in acetone) [1] [nm]	Max. absorption wavelength (in chloroform) [1] [nm]	Max. absorption wavelength (in acetone) [3] [nm]	Substance	Solubility MEX [2]	Solubility toluene [2]
870			VOPc(2,5-Cl2PhO)8{2,6-(CH3)2PhO}4(PhCH2NH)4 [reference compound]		
834			VOPc(2,5-Cl2PhO)8{2,6-(CH3)2PhO}4{Ph(CH)3CHNH}3]F [reference compound]		
840			VOPc(2,5-Cl2PhO)8{2,6-Br2-4-CH3PhO}4 {Ph(CH)3CHNH}3]F [reference compound]		
834			VOPc(4-CNPhO)8{2,6-(CH3)2PhO}4{Ph(CH)3CHNH}3F [reference compound]		
912			VOPc(PhS)8{2,6-(CH3)2PhO}4(PhCH2NH)4 [reference compound]		
952	970		VOPc(PhS)8{2,6-(CH3)2PhO}4[{(CH3)2CH}2NCH2CH2NH]4 [Example 3]	⊚ (a value of not less than 5% by weight)	⊚ (a value of not less than 5% by weight)
944	963		VOPc(PhS}8{2,6-(CH3)2PhO}4[{CH3(CH2)2CH}2NCH2CH2NH]4 [Example 4]	⊚ (a value of not less than 5% by weight)	⊚ (a value of not less than 5% by weight)
